Positions of bridges follow the written chain, without caps; N, C: chain ends. Residues, ends and D or L forms follow the SMILES beside them.
System: plasma protein
Test: not given
Details: cited from earlier work

Molecule | PPB (fb)
Terlipressin | 0.3
Dalbavancin | 0.93
Quinupristin [reference compound] | 0.55-0.78
Oxytocin [reference compound] | 0.3
Teixobactin | 0.84
Eptifibatide [reference compound] | 0.25

Same assay, conditions: fraction bound (0-1); public cyclic peptide drug dataset; ref DrugBank [39]; cited from earlier work

Molecule | PPB (fb)
Oritavancin | 0.85
Anidulafungin [reference compound] | 0.99
Colistin | 0.904-0.929
Pasireotide | 0.88
Vancomycin [reference compound] | 0.55
Desmopressin | 0.5
Lanreotide | 0.79-0.83
Caspofungin | 0.97
Daptomycin | 0.85
Acetyl-Daptomycin | 0.12
Dactinomycin | 0.05
Vasopressin | 0.01
Polymyxin?B | 0.559
Micafungin [reference compound] | 0.99
Telavancin | 0.897
Romidepsin | 0.92-0.94

System: not listed separately
Test: in vitro
Assay type: in vitro ADME
Details: human, plasma, Exp. PPB (fb*)
Protocol: As the number of publicly available data of cyclic peptide drugs is small compared to that of small molecule, we additionally designed and experimented with 16 cyclic peptides composed exclusively of natural amino acids. First, linear peptides were synthesized. Then, circularization was achieved by making a disulfide bond between N-terminal and C-terminal cysteine residues and confirmed by TOF/MS and HPLC analyses. Human PPB values fb were determined by the equilibrium dialysis method. Frozen human plasma was thawed immediately at room temperature. Then, the plasma was centrifuged at 3220 g for 10 min to remove clots and the supernatant was collected into a fresh tube. The working solutions of test compounds were prepared in DMSO at a concentration of 200 μM. Then, 3 μL of the working solution was removed for mixing with 597 μL of human plasma to achieve a final concentration of 1 μM (0.5% DMSO). The plasma samples were vortexed thoroughly. The dialysis membranes (HTD 96a/b Dialysis Membrane Strips MWCO 12-14 K, Cat. #1101, Batch# 1141 (12–17)) were soaked in ultrapure water for 60 min to separate the strips, then in 20% ethanol for 20 min, and finally in the dialysis buffer (100 mM sodium phosphate and 150 mM NaCl) for 20 min. The dialysis apparatus was assembled according to the manufacturer’s instructions. Each cell was filled with the spiked plasma sample and dialyzed against equal volume of the dialysis buffer. The assay was performed in duplicate. The dialysis plate was sealed and incubated in an incubator at 37 °C with 5% CO2 at 100 rpm for 6 h. At the end of incubation, the seal was removed and 50 μL of samples from both buffer and plasma chambers were transferred to wells of a 96-well plate. 50 μL of blank plasma was added to each buffer sample and an equal volume of phosphate buffered saline was supplemented to the collected plasma sample. […] Samples in the plate were vortexed for 5 min and centrifuged at 3220 g for 30 min at 4 °C. Then, the supernatant was transferred to a new 96-well plate with 100 μL or 200 μL water (depending on the LC-MS signal response and peak shape) for LC-MS/MS analysis.

Molecule | fraction unbound at 6 h, 1 μM
CC(C)C[C@@H]1NC(=O)CNC(=O)[C@H](C)NC(=O)[C@@H](N)CSSC[C@@H](C(=O)O)NC(=O)[C@H](C)NC(=O)[C@H](C)NC(=O)[C@H](CC(C)C)NC(=O)[C@H](C(C)C)NC1=O [Pep.9] (H-CAGLVLAAC-OH; disulfide 1-9; N-terminus and C-terminus assumed) | 1
CC(C)C[C@@H]1NC(=O)[C@H](Cc2ccc(O)cc2)NC(=O)[C@@H](N)CSSC[C@@H](C(=O)O)NC(=O)CNC(=O)[C@H](Cc2c[nH]cn2)NC(=O)[C@H](Cc2ccc(O)cc2)NC(=O)[C@H](CCC(=O)O)NC(=O)[C@H](C)NC1=O [Pep.13] (H-CYLAEYHGC-OH; disulfide 1-9; N-terminus and C-terminus assumed) | 0.651
NC(=O)CC[C@@H]1NC(=O)[C@H](Cc2c[nH]c3ccccc23)NC(=O)[C@@H]2CCCN2C(=O)[C@H](CCC(N)=O)NC(=O)[C@H](CC(N)=O)NC(=O)[C@@H](N)CSSC[C@@H](C(=O)O)NC1=O [Pep.11] (H-CNQPWQC-OH; disulfide 1-7; N-terminus and C-terminus assumed) | 1
CC(C)[C@@H]1NC(=O)[C@H](CCCNC(=N)N)NC(=O)[C@@H]2CCCN2C(=O)[C@H](CCCNC(=N)N)NC(=O)[C@H](Cc2c[nH]c3ccccc23)NC(=O)[C@@H](N)CSSC[C@@H](C(=O)O)NC(=O)[C@H](CCCNC(=N)N)NC(=O)[C@H](C)NC1=O [Pep.5] (H-CWRPRVARC-OH; disulfide 1-9; N-terminus and C-terminus assumed) | 1
C[C@@H]1NC(=O)[C@H](Cc2c[nH]c3ccccc23)NC(=O)[C@H](C)NC(=O)[C@@H]2CCCN2C(=O)[C@H](C)NC(=O)[C@@H](N)CSSC[C@@H](C(=O)O)NC(=O)CNC(=O)[C@H](Cc2c[nH]cn2)NC1=O [Pep.14] (H-CAPAWAHGC-OH; disulfide 1-9; N-terminus and C-terminus assumed) | 0.926
NCCCC[C@@H]1NC(=O)[C@H](Cc2c[nH]c3ccccc23)NC(=O)[C@H](Cc2ccccc2)NC(=O)[C@@H]2CCCN2C(=O)[C@H](Cc2ccccc2)NC(=O)[C@@H](N)CSSC[C@@H](C(=O)O)NC(=O)[C@H](Cc2ccc(O)cc2)NC1=O [Pep.4] (H-CFPFWKYC-OH; disulfide 1-8; N-terminus and C-terminus assumed) | 0.384

System: plasma protein
Test: not given
Details: fraction bound to plasma protein; small molecule dataset, sheet 1-SM (Set Dte = test, Dtr = training); ref Ingle et al.; cited from earlier work

Molecule | PPB (fb)
CC1(C)S[C@@H]2[C@H](NC(=O)COc3ccccc3)C(=O)N2[C@H]1C(=O)O [Phenoxymethylpenicillin] | 0.67
CCNCC(O)c1cccc(O)c1 (stereo not shown) [Etilefrine] | 0.24
COC1/C=C/OC2(C)Oc3c(C)c(O)c4c(O)c(c(/C=N/N5CCN(C6CCCC6)CC5)c(O)c4c3C2=O)NC(=O)/C(C)=C\C=C\C(C)C(O)C(C)C(O)C(C)C(O)C1C (stereo not shown) [25-desacetylrifapentine] | 0.98
Cn1cc[nH]c1=S [thiamazole] | 0
CC1(C)[C@@H](OC(=O)CCC(=O)O)CC[C@]2(C)[C@H]3C(=O)C=C4[C@@H]5C[C@@](C)(C(=O)O)CC[C@]5(C)CC[C@@]4(C)[C@]3(C)CC[C@@H]12 [carbenoxolone] | 0.99
CC(=O)O[C@@]12CO[C@@H]1C[C@H](O)[C@@]1(C)C(=O)[C@H](O)C3=C(C)[C@@H](OC(=O)[C@H](O)[C@@H](NC(=O)OC(C)(C)C)c4ccccc4)C[C@@](O)([C@@H](OC(=O)c4ccccc4)[C@H]21)C3(C)C [Docetaxel] | 0.96
O=C1CCc2cc(OCCCCc3nnnn3C3CCCCC3)ccc2N1 [cilostazol] | 0.96
CC(C)(O)c1ccccc1CC[C@@H](SCC1(CC(=O)O)CC1)c1cccc(/C=C/c2ccc3ccc(Cl)cc3n2)c1 [Montelukast] | 0.99
COCC(=O)O[C@]1(CCN(C)CCCc2nc3ccccc3[nH]2)CCc2cc(F)ccc2[C@@H]1C(C)C [Mibefradil] | 0.99
CN1CCN(C(c2ccccc2)c2ccccc2)CC1 [cyclizine] | 0.6
CCN(CC)Cc1cc(Nc2ccnc3cc(Cl)ccc23)ccc1O [amodiaquine] | 0.9
NCCCC(N)(C(=O)O)C(F)F (stereo not shown) [eflornithine] | 0
CCCCCCC(N)C(=O)NC1C(=O)N2C1SC(C)(C)C2C(=O)O (stereo not shown) [penicillin13] | 0.66

Same assay, conditions: fraction bound to plasma protein; small molecule dataset, sheet 1-SM, Set Dtr; ref Ingle et al.; cited from earlier work

Molecule | PPB (fb)
Cc1cccc([C@H](C)c2cnc[nH]2)c1C [Dexmedetomidine] | 0.94
CO[C@@]1(NC(=O)C(C(=O)O)c2ccc(O)cc2)C(=O)N2C(C(=O)O)=C(CSc3nnnn3C)CO[C@@H]21 (stereo partly shown) [Moxalactam] | 0.53
C#C[C@]1(O)C=C[C@H]2[C@@H]3CCC4=CC(=O)CC[C@@H]4[C@H]3CC[C@@]21CC [Gestodene] | 0.98

Same assay, conditions: fraction bound to plasma protein; small molecule dataset, sheet 1-SM; ref Ingle et al.; cited from earlier work

Molecule | PPB (fb)
O=C(O)c1ccc(O)c(O)c1 [protocatechuic acid] | 0.21
c1ccc2c(c1)Sc1ccccc1N2CC1CN2CCC1CC2 (stereo not shown) [mequitazine] | 0.9
NS(=O)(=O)c1cc2c(cc1C(F)(F)F)NCNS2(=O)=O [hydroflumethiazide] | 0.75
CNc1nc(N(C)C)nc(N(C)C)n1 [pentamethylmelamine] | 0.75
CC1(C)SC2C(NC(=O)C(N)c3cccc(N)c3)C(=O)N2C1C(=O)O (stereo not shown) [penicillin31] | 0.12
CCN(CC)CCOC(=O)c1ccc(N)cc1 [procaine] | 0.06
CCS(=O)(=O)CCn1c([N+](=O)[O-])cnc1C [Tinidazole] | 0.15
CCCCCCCCCCC[C@@H](C[C@@H]1OC(=O)[C@H]1CCCCCC)OC(=O)[C@H](CC(C)C)NC=O [orlistat] | 0.99
C1=Cc2cccc(OCC3CNCCO3)c2C1 (stereo not shown) [indeloxazine] | 0.94

Same assay, conditions: plasma; cited from earlier work

Molecule | PPB (fb)
Anidulafungin [reference compound] | 0.84
Vancomycin [reference compound] | 0.37
Quinupristin [reference compound] | 0.66
Micafungin [reference compound] | 1
Oxytocin [reference compound] | 0
Eptifibatide [reference compound] | 0.25
Nimodipine | 0.98
COc1ccc2cc1Oc1cc3c(cc1OC)CC[N+](C)(C)[C@H]3Cc1ccc(cc1)Oc1c(OC)c(OC)cc3c1[C@@H](C2)[N+](C)(C)CC3 [Metocurine] | 0.35

— PMC6311893, “Computational prediction of plasma protein binding of cyclic peptides from small molecule experimental data using sparse modeling techniques” (BMC Bioinformatics, 2018)
